The record followed here is patent US9708336B2, “Metallo-beta-lactamase inhibitors” (priority 2014, dated 2017).

Read-outs that look alike come from different tables or passages of the source.

What is called IC50 is the concentration that inhibits the measured activity by half.

One experiment deals with IMP-1 (Serratia marcescens, UniProt P52699). In words: biochemical. It counts as biochemical. Particulars: read-out: IMP-1 IC50.
In experiment [1] the test system is Serratia marcescens expressing IMP-1 (CL5741). In words: Antibiotic potentiation activity: synergistic concentration (MITC95) with imipenem, OD600 growth. The conditions noted are these: for Serratia marcescens MITC95: 95% growth inhibition. It counts as cell-based. The method in brief:
(§1)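 Absorbance after a 22–24 h, 35 °C incubation served as the read-out. Wells held bacteria (saline suspension diluted 1:100 into 1.1× CAMHB), imipenem at 4 μg/ml final or optionally 1 μg/ml, and test compound.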

For experiment [2], the system named is Klebsiella pneumoniae expressing VIM-1 (IHMA599644). The experiment is described as above. It counts as cell-based. Particulars: for Klebsiella pneumoniae MITC95: 95% growth inhibition. The method in brief:
as §1

Experiment [3] has as its system Escherichia coli expressing NDM-1 (CLB30016). Described as above. It counts as cell-based. Particulars: for Escherichia coli MITC95: 95% growth inhibition. Summed up: as §1
A further experiment has as its target VIM-1 (Pseudomonas aeruginosa (strain ATCC 15692 / DSM 22644 / CIP 104116 / JCM 14847 / LMG 12228 / 1C / PRS 101 / PAO1), UniProt A0A0F7KYQ8). The experiment is described as follows: Enzyme activity: determination of IC50, fluorescence assay with CCF2-FA substrate (VIM-1). It counts as biochemical.
A further experiment has as its target NDM-1 (Klebsiella pneumoniae, UniProt C7C422). The experiment is described as follows: biochemical. The conditions noted are these: read-out: NDM-1 IC50. It counts as biochemical.
The mark [4] stands for this setting: IMP-1 enzyme, CCF2-FA substrate.
The mark [5] stands for this setting: Serratia marcescens CL5741 (IMP-1).
Where [6] appears, read: Klebsiella pneumoniae IHMA599644 (VIM-1).
[7] abbreviates: VIM-1 enzyme, CCF2-FA substrate, read-out: VIM-1 IC50.
[8] abbreviates: NDM-1 enzyme, CCF2-FA substrate.
[9] abbreviates: IMP-1 enzyme, CCF2-FA fluorescence assay.
The mark [10] stands for this setting: Serratia marcescens expressing IMP-1 (CL5741).
[11] abbreviates: Klebsiella pneumoniae expressing VIM-1 (IHMA599644).
Where [12] appears, read: Escherichia coli expressing NDM-1 (CLB30016).
[13] abbreviates: NDM-1 enzyme, CCF2-FA fluorescence assay.
[14] abbreviates: VIM-1 enzyme, CCF2-FA fluorescence assay, read-out: VIM-1 IC50.
The mark [15] stands for this setting: fluorescence assay with CCF2-FA substrate.
The mark [16] stands for this setting: concentration giving 95% inhibition of bacterial growth.

Chain of IMP-1 (P52699 whole entry, looked up): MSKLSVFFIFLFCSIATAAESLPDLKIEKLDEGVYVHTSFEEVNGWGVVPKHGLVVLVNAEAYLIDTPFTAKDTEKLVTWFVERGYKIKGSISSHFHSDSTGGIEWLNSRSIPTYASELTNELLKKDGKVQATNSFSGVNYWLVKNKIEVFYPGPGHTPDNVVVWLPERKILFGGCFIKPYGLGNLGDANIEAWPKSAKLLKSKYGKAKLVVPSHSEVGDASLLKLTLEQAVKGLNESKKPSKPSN
Chain of NDM-1 (C7C422 whole entry, looked up, species assumed): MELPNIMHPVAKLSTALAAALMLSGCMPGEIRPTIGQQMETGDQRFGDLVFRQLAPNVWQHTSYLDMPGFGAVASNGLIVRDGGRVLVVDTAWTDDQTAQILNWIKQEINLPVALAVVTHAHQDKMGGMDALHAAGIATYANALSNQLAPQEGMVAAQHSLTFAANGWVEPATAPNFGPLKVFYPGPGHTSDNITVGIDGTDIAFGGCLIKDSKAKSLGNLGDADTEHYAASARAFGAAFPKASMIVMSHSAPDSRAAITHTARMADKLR

Take `NS(=O)(=O)c1c(CCO)ccc(-c2cccc3ncccc23)c1-c1nn[nH]n1` [Example 530, 6-(2-Hydroxyethyl)-3-(quinolin-5-yl)-2-(2H-tetrazol-5-yl)benzenesulfonamide]: the IC50 worked out at 25.9 nM on IMP-1 (setting [4]), 0.3 nM on VIM-1 (setting [7]) and 1.15 nM on NDM-1 (setting [8]). Moreover, the “Serratia marcescens MITC95” value in experiment [1] (setting [5]) was determined as 0.5859 µM. The “Klebsiella pneumoniae MITC95” value in experiment [2] (setting [6]) was determined as 4.688 µM. Also, the “Escherichia coli MITC95” value in experiment [3] ((CLB30016, NDM-1)) is 3.125 µM.

As to `N=C(N)NC1CCC(CCc2ccc(-c3ccc(C4CCN(C(=N)N)CC4)cc3)c(-c3nn[nH]n3)c2S(N)(=O)=O)CC1` (stereo not drawn) [Example 472, 4-(4′-(2-(4-guanidinocyclohexyl)ethyl)-3′-sulfamoyl-2′-(2H-tetrazol-5-yl)-[1,1′-biphenyl]-4-yl)piperidine-1-carboximidamide], the IC50 on IMP-1 (setting [9]) is 0.661 nM; at VIM-1 (VIM-1 IC50, VIM-1 enzyme, CCF2-FA fluorescence assay) it was 13.4 nM; at NDM-1 (setting [13]), 0.505 nM. For the same molecule, the “Serratia marcescens MITC95” value in experiment [1] (setting [10]) came to 0.7813 µM. The “Klebsiella pneumoniae MITC95” value in experiment [2] (setting [11]) came out at 75 µM. The “Escherichia coli MITC95” value in experiment [3] (setting [12]) is 1.172 µM.

In the case of `NS(=O)(=O)c1c(C(F)(F)F)ccc(-c2cccc3c2ccc[n+]3[O-])c1-c1nn[nH]n1` [Example 514, 5-(3-Sulfamoyl-2-(2H-tetrazol-5-yl)-4-(trifluoromethyl)phenyl)quinoline 1-oxide], the IC50 is 6.08 nM at IMP-1 (setting [4]), 0.138 nM on VIM-1 (setting [7]) and 1.15 nM on NDM-1 (setting [8]). In addition, in experiment [1] (setting [5]), the “Serratia marcescens MITC95” value is 1.172 µM. The “Klebsiella pneumoniae MITC95” value in experiment [2] (setting [6]) stood at 9.375 µM. The “Escherichia coli MITC95” value in experiment [3] ((CLB30016, NDM-1)) is 3.125 µM.

For the molecule `CC(O)C1CCN(Cc2ccc(-c3cccc(S(N)(=O)=O)c3-c3nnn[nH]3)cc2)C1` (stereo not drawn) [Example 351, 4′-{[3-(1-hydroxyethyl)pyrrolidin-1-yl]methyl}-2-(1H-tetrazol-5-yl)biphenyl-3-sulfonamide], the IC50 worked out at 332 nM on IMP-1 (setting [9]), 414 nM at VIM-1 (setting [14]) and 18.1 nM at NDM-1 (setting [13]). Also, the “Serratia marcescens MITC95” value in experiment [1] (setting [10]) was determined as 3.125 µM. Moreover, the “Klebsiella pneumoniae MITC95” value in experiment [2] (setting [11]) was determined as 150 µM. For the same molecule, the “Escherichia coli MITC95” value in experiment [3] (setting [12]) was 1.563 µM.

Turning to `Nc1nc2c(-c3cccc(S(N)(=O)=O)c3-c3nnn[nH]3)cccc2s1` [Example 134, 3-(2-aminobenzo[d]thiazol-4-yl)-2-(1H-tetrazol-5-yl)benzenesulfonamide], the IC50 was 22.6 nM on IMP-1 (setting [15]); 11.1 nM on VIM-1 (fluorescence assay with CCF2-FA substrate, read-out: VIM-1 IC50); 0.28 nM on NDM-1 (setting [15]). Also, the “Serratia marcescens expressing IMP-1 (CL5741) MITC95” value in experiment [1] (setting [16]) is 0.7813 µM. Also, in experiment [2] (setting [16]), the “Klebsiella pneumoniae expressing VIM-1 (IHMA 599644) MITC95” value stood at 3.125 µM. For the same molecule, the “Escherichia coli expressing NDM-1 (CLB 30016) MITC95” value in experiment [3] (setting [16]) was determined as 0.5859 µM.

Turning to `NS(=O)(=O)c1c(C(F)(F)F)ccc(C2CCn3cncc3C2)c1-c1nnn[nH]1` (stereo not drawn) [Example 494, 3-(5,6,7,8-Tetrahydroimidazo[1,5-a]pyridin-7-yl)-2-(1H-tetrazol-5-yl)-6-(trifluoromethyl)benzenesulfonamide], the IC50 at IMP-1 (setting [4]) worked out at 13 nM; on VIM-1 (setting [7]) it was 0.427 nM; on NDM-1 (setting [8]), 4.43 nM. In addition, the “Serratia marcescens MITC95” value in experiment [1] (setting [5]) stood at 1.172 µM. Also, the “Klebsiella pneumoniae MITC95” value in experiment [2] (setting [6]) was found to be 1.563 µM. For the same molecule, the “Escherichia coli MITC95” value in experiment [3] ((CLB30016, NDM-1)) is 0.3906 µM.

For the molecule `NS(=O)(=O)c1cccc(-c2ccc3nc(C(=O)O)ccc3c2)c1-c1nn[nH]n1` [Example 287, 6-(3-sulfamoyl-2-(2H-tetrazol-5-yl)phenyl)quinoline-2-carboxylic acid], the IC50 worked out at 159 nM at IMP-1 (setting [9]), 34 nM at VIM-1 (setting [14]) and 0.734 nM on NDM-1 (setting [13]). Also, in experiment [1] (setting [10]), the “Serratia marcescens MITC95” value came to 18.75 µM. The “Klebsiella pneumoniae MITC95” value in experiment [2] (setting [11]) was 37.5 µM. Further, in experiment [3] (setting [12]), the “Escherichia coli MITC95” value turned out to be 9.375 µM.
